Patent US9359196B2, “Antiproliferative compositions comprising curcumin analogs and methods of producing and using same” (The Board of Regents of the University of Oklahoma, priority 2009, dated 2016)
Like-named read-outs stand apart in the source and are kept apart here.

Columns and labels:
[1] = test system: lung adenocarcinoma cell line H441; assay: Cell proliferation (hexosaminidase assay) in lung adenocarcinoma H441 cells, Example 1; format: cell-based, human
Method: Cell Proliferation Studies: In order to assess the anti-proliferative activity of the synthesized compounds, an in vitro cell culture system of lung adenocarcinoma cell line H441 was used. The cell detachment and anti-proliferative activity was measured as a decrease in hexosaminidase enzyme activity associated with remainder of the adhered cells. [Landegren, 1984] […] The concentration versus cell proliferation plots were analyzed by an exponential fit (Table 1). The results were compared with the anti-proliferative activity of compound 1.
Cell Culture and drug treatment: Human lung adenocarcinoma cell line NCI-H441 (ATCC Number: HTB-174) was obtained from the American Type Culture Collection (Manassas, Va.). H441 cells were maintained at 37° C. with 5% CO2 in McCoy's 5A Medium (Invitrogen, Carlsbad, Calif.) supplemented with 5% heat-inactivated fetal bovine serum (FBS). All media contained gentamicin at 50 μg/ml (GIBCO Laboratories, Grand Island, N.Y.). Other cells lines (PANC-1, MiaPaCa-2 and PC-3) were also similarly maintained, except that the cell culture medium was RPMI 1640 instead of McCoy's.
To evaluate the anti-proliferative activity of synthesized bis(2-fluorobenzylidene)-4-piperidone and its derivatives, the cells were seeded in 96-well flat-bottom tissue culture plates at a density of 10×10^3 cells per well. The cells were allowed to attach and grow overnight. The test compounds were solubilized in dimethyl sulfoxide (DMSO), filtered through 0.2 μm nylon filter and added to cells at 1, 10, 25 and 100 μM concentrations in culture medium supplemented with 5% FBS. The DMSO concentration was maintained at 0.1% per well. Control wells received equivalent volume of DMSO without any test compounds. The cells were allowed to remain in the treatment medium for 24, 48 and 72 hours.
Cell Proliferation: The total number of cells after the treatment period was estimated by the hexosaminidase assay. [Landegren, 1984] Briefly, the medium was removed and hexosaminidase substrate solution in citrate buffer pH 5 (7.5 mM), […] (Calbiochem, San Diego, Calif.) was added at 60 μl per well. The plate was incubated at 37° C. in 100% humidity for 30 minutes, before stopping the reaction with 90 μl of 50 mM glycine containing 5 mM of EDTA (pH 10.4). The absorbance was measured at 405 nm. The experiments were conducted in triplicate, and repeated at least twice. The data were analyzed as percent of control, where the control wells were treated with equivalent amounts of DMSO alone, and the analyzed data was presented as average±standard error of mean. The differences among mean values were deemed significant at p<0.05.
For IC50 calculations, a plot between the drug concentration and hexosaminidase activity was generated and the data was fitted either linearly or exponentially. The best fit was used for further processing of data.

[2] = 24 h of treatment, 1-100 μM tested, fitted plot, read-out: IC50 value
[3] = Homo sapiens, NCI-H441, 24 h of treatment, 1-100 μM tested, fitted plot, read-out: IC50 value
[4] = Homo sapiens, NCI-H441, 24 h of treatment, read-out: IC50 (grouping relative to compound 1)

IC50 [1, 2] [µM] | IC50 [1, 3] [µM] | IC50 [1, 4] [µM] | melting point [°C] | Structure (SMILES) | anti-proliferative activity in words, relative to the comparator named [1]
101 |  |  |  | CN(C)c1ccc(C=C2CNCC(=Cc3ccc(N(C)C)cc3)C2=O)cc1 [Compound 9, 3,5-Bis[4-(N,N-dimethylaminoenzylidene)]-4-piperidone] | 
 | 45.7 |  |  | O=C1C(=Cc2ccc(F)cc2)CNCC1=Cc1ccc(F)cc1 [Compound 7, 3,5-Bis(4-fluorobenzylidene)-4-piperidone] | 
 | 47 |  |  | CCCCCCCCCCCCC=CC(CC(=O)O)C(=O)N1CC(=Cc2ccccc2F)C(=O)C(=Cc2ccccc2F)C1 (stereo not shown) [Compound 27, 3-[3,5-Bis-(2-fluorobenzylidene)-4-oxo-piperidine-1-carbonyl]-heptadec-4-enoic acid] | acceptable anti-proliferative activity
 | 6 | < 30 |  | O=C1C(=Cc2ccccc2Br)CNCC1=Cc1ccccc1Br [Compound 4, 3,5-Bis(2-bromobenzylidene)-4-piperidone] | 
 | 84 | > 50 |  | CCCCCCCCCCCCCCCCC=CC(CC(=O)O)C(=O)N1CC(=Cc2ccccc2F)C(=O)C(=Cc2ccccc2F)C1 (stereo not shown) [Compound 28, 3-[3,5-Bis-(2-fluorobenzylidene)-4-oxo-piperidine-1-carbonyl]-heneicos-4-enoic acid] | total loss of activity
 | 58 | > 50 |  | CCCCCCCCCCC=CC(CC(=O)O)C(=O)N1CC(=Cc2ccccc2F)C(=O)C(=Cc2ccccc2F)C1 (stereo not shown) [Compound 26, 3-[3,5-Bis-(2-fluorobenzylidene)-4-oxo-piperidine-1-carbonyl]-pentadec-4-enoic acid] | acceptable anti-proliferative activity
 | 50 | > 50 | 162 to 163 | Cc1ccc(S(=O)(=O)N2CC(=Cc3ccccc3F)C(=O)C(=Cc3ccccc3F)C2)cc1 [Compound 20, N-(4-Methylbenzenesulfonyl)-3,5-bis(2-fluorobenzylidene)-4-piperidone] | 
 | 54 | > 50 |  | CC(=O)N1CC(=Cc2ccccc2F)C(=O)C(=Cc2ccccc2F)C1 [Compound 19, N-Acetyl-3,5-bis(2-fluorobenzylidene)-4-piperidone] | performed slightly better than compound 1
 | 130 | > 50 |  | O=C1C(Cc2ccccc2F)CNCC1Cc1ccccc1F (stereo not shown) [Compound 11, 3,5-Bis(2-fluorobenzyl)-4-piperidone] | significantly less anti-proliferative activity as compared to compound 1
 | 124 | > 50 |  | OC1C(=Cc2ccccc2F)CNCC1=Cc1ccccc1F (stereo not shown) [Compound 10, 3,5-Bis(2-fluorobenzylidene)-4-hydroxy-piperidine] | significantly less anti-proliferative activity as compared to compound 1
46 |  |  |  | O=C(CN1CC(=Cc2ccccc2F)C(=O)C(=Cc2ccccc2F)C1)NCc1ccc(F)cc1 [Compound 23, 2-[3,5-Bis(2-fluorobenzylidene-4-piperidone-1-yl)-N-(4-fluorobenzyl)acetamide]] | 
 | 12 | < 30 |  | O=C1C(=Cc2ccccc2)CNCC1=Cc1ccccc1 [Compound 2, 3,5-Bis(benzylidene)-4-piperidone] | 
 | 55 | > 50 | 96 to 98 | O=C1C(=Cc2ccccc2F)CN(C(=O)C2CCCCC2C(=O)O)CC1=Cc1ccccc1F (stereo not shown) [Compound 17, 2-[3,5-Bis-(2-fluorobenzylidene)-4-oxo-piperidine-1-carbonyl]-cyclohexanecarboxylic acid] | 
 | 50 |  |  | O=C1C(=Cc2cccc(Cl)c2)CNCC1=Cc1cccc(Cl)c1 [Compound 6, 3,5-Bis(3-chlorobenzylidene)-4-piperidone] | little change in IC50 as compared to that of compound 1
 | 310 | > 50 |  | O=C(O)COCC(=O)N1CC(=Cc2ccccc2F)C(=O)C(=Cc2ccccc2F)C1 [Compound 14, 2-[3,5-Bis-(2-fluorobenzylidene)-4-oxo-piperidin-1-yl]-2-oxo-ethoxyacetic acid] | less potent as compared to compound 15
69 |  |  |  | O=C(O)CCC(=O)N1CC(=Cc2ccccc2F)C(=O)C(=Cc2ccccc2F)C1 [Compound 12] | 
 | 49 |  |  | O=CN1CC(=Cc2ccccc2F)C(=O)C(=Cc2ccccc2F)C1 [Compound 18, N-Formyl-3,5-bis(2-fluorobenzylidene)-4-piperidone] | performed slightly better than compound 1
 | 5 | < 30 |  | O=C1C(=Cc2ccccc2Cl)CNCC1=Cc1ccccc1Cl [Compound 3, 3,5-Bis(2-chlorobenzylidene)-4-piperidone] | more anti-proliferative than the 2-fluoro substituted compound 1
 | 87 | > 50 |  | O=C1C(=Cc2ccc(Cl)cc2)CNCC1=Cc1ccc(Cl)cc1 [Compound 8, 3,5-Bis(4-chlorobenzylidene)-4-piperidone] | no change in the anti-proliferative activity of 8 compared to that of 7
 | 64 | > 50 |  | CCCCCCCCCCCCCCCCNC(=O)CCC(=O)N1CC(=Cc2ccccc2F)C(=O)C(=Cc2ccccc2F)C1 [Compound 24, 4-[3,5-Bis-(2-fluorobenzylidene)-4-oxo-piperidin-1-yl]-N-hexadecyl-4-oxo-butyramide] | loss of anti-proliferative activity
 | 56 | > 50 |  | O=C1C(=Cc2ccccc2F)CN(C(=O)c2ccccc2C(=O)O)CC1=Cc1ccccc1F [Compound 16, 2-[3,5-Bis-(2-fluorobenzylidene)-4-oxo-piperidine-1-carbonyl]-benzoic acid] | very potent analog
 | 29 | < 30 |  | O=C(O)C=CC(=O)N1CC(=Cc2ccccc2F)C(=O)C(=Cc2ccccc2F)C1 [Compound 13, 4-[3,5-Bis-(2-fluorobenzylidene)-4-oxo-piperidin-1-yl]-4-oxo-2-butenoic acid] | significant enhancement in potency
79 |  |  |  | O=C(CCC(=O)N1CC(=Cc2ccccc2F)C(=O)C(=Cc2ccccc2F)C1)N[C@H]1C(O)O[C@H](CO)[C@@H](O)[C@@H]1O (stereo partly shown) [Compound 22, 4-Oxo-4-[3,5-bis(2-fluorobenzylidene-4-piperidonylcarbonyl)-2-glucosepropanamide]] | reduced anti-proliferative activity
 | 60 | > 50 | 167 to 168 | O=C(O)CCCC(=O)N1CC(=Cc2ccccc2F)C(=O)C(=Cc2ccccc2F)C1 [Compound 15, 5-[3,5-Bis-(2-fluorobenzylidene)-4-oxo-piperidin-1-yl]-5-oxo-pentanoic acid] | 

Structure (SMILES) | IC50 [1, 2] [µM] | IC50 [1, 3] [µM] | IC50 [1, 4] [µM] | melting point [°C] | anti-proliferative activity in words, relative to the comparator named [1]
O=C1C(=Cc2ccccc2[N+](=O)[O-])CNCC1=Cc1ccccc1[N+](=O)[O-] [Compound 5, 3,5-Bis(2-nitrobenzylidene)-4-piperidone] |  | 93 | > 50 |  | the activity remained more or less the same
